# Test: Polymorphic stability on storage at 40° C./75% relative humidity
# Assay type: physicochemical
# Details: kept at a temperature of 40° C.±2° C. and a relative humidity of 75%±5% for 6 months
# Description: All XRPD analyses were carried out on a Bruker D8 Advance instrument, equipped with a copper radiation source with a wavelength of 1.54 Å.
# All DSC analyses were carried out on a Perkin Elmer instrument, over a temperature range of 25° C. to 250° C., at a heating rate of 10° C./min, using a closed aluminium pan with a pinhole as crucible.
structure (smiles),measurement,value
"O=C(CCCCCCC(=O)Nc1ccccc1)NO [crystalline form VI, N-hydroxy-N′-phenyl-octanediamide]",polymorphic stability (conversion over time to other polymorphs),very stable polymorphically with no conversion over time to other polymorphs

# — patent publication US8754129B2, “Crystalline vorinostat form VI” (Generics [UK] Limited, priority 2008, dated 2014)
